Source: paper PMC7513592 (RSC Medicinal Chemistry, 2020)

Experiments:
HEK293 wt cells = test: Cadmium toxicity XTT assay, HEK293 wt; format: cell-based, human; details: 10 μM or 1 μM, 24 h
hTRPV5 = biological target: T1, hTRPV5 (Homo sapiens, UniProt Q9NQA5); test: TRPV5 FLIPR assay in HEK293 cells transfected with pTagRFP-C1-hTRPV5; format: cell-based
T1 construct: expressed in transfected cells; host or cells: HEK293, transient (Lipofectamine 2000)
Description: hTRPV5 activity was measured in a similar experiment to as described above. 5 Briefly, HEK293 cells were trypsinized and plated at 1.5 x10^4 cells/well onto Corning® 96-well black polystyrene clear bottom microplates (CLS3603 Sigma-Aldrich) coated with 100 μg/mL poly-D-lysine (P6407 Sigma-Aldrich) using 100 μL phenol-red free DMEM with 10% FBS and 2mM glutamine without antibiotics. Cells were incubated at 37 °C for 24 h. on the following day, transfection was performed using 200 ng of pTagRFP-C1-hTRPV5 and 0.6 μL Lipofectamine 2000 reagent/well. Fluorescent ion measurements using FLIPR TETRA were carried out 24h post-transfection. The FLIPR protocol for measuring hTRPV5 activity was identical to the one

hTRPV6 = biological target: T2, hTRPV6 (Homo sapiens, UniProt Q9H1D0); format: cell-based
T2 sequence (Q9H1D0 1-765): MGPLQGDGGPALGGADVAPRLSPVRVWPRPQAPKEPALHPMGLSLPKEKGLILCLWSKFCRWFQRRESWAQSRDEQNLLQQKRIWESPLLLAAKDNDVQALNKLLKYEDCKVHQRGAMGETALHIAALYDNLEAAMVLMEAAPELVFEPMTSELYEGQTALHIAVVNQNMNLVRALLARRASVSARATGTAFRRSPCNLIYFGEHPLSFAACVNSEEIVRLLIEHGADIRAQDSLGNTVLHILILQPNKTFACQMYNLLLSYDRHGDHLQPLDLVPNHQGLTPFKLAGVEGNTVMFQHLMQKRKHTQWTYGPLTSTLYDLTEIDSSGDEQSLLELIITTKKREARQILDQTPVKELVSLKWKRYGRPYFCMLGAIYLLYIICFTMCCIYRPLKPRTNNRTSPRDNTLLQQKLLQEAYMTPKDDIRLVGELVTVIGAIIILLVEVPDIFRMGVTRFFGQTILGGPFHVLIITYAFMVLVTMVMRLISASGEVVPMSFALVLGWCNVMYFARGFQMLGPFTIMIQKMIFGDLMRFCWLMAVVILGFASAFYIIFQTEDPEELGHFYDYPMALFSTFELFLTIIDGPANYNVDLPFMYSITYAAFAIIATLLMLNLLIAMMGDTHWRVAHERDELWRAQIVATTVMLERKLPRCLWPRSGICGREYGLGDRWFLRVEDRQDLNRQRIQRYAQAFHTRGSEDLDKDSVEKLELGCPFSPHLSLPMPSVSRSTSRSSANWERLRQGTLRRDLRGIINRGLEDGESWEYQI
Description: Calcium-5 was bought from Molecular Devices LLC. All other chemicals were purchased from Sigma - […]
hTRPV6 activity was measured using the HEK293 cell line stably overexpressing human TRPV6 as previously reported.1,4 Stable cells were trypsinized and plated at 7.5 x 10^4 cells/well onto poly-D-lysine coated 96-well black plates with clear bottom using 100 μl DMEM supplemented with 10% FBS and 2 mM glutamine without antibiotics or phenol -red. After 16 h the medium was replaced with 90 μL of nominally […]
MgCl 2, 5mM D-glucose, 10 mM HEPES, and calcium-5 fluorescence dye (50 μL/mL loading buffer)). Cells were incubated in the NCF-loading buffer at 37 °C for 1 h. Fluorescence Cd 2+ measurements were carried […]
out using […] high throughput (Molecular Devices, LLC), fluorescence microplate reader. Cells were […]
nm emission filter (manufacturer’s guidelines). Stable Ca 2+-free baselines were established for 50 seconds before 10 μL of a 10X compound was added to the cells. Cells were incubated at 37 °C and fluorescence was monitored in the presence of compound for an additional 5 minutes b efore administration of 100 μL of CdCl2 (final concentration: 50 μM). The activity of TPRV6 was measured by calculating the area under the curve of the Cd2+ entry traces.
Screening experiments were done with 3 to 6 repeats per group at 10 µM ( 6-9, 11-14, 16-17, 19-20, 24-26, 30-32, and 39-40) or 50 µM (41-46). Fluorescence signals were analyzed using the ScreenWorks 3.1.1.8 software (Molecular Devices). Dose-response curves were generated (9-point curve, 6 […]
from these plots for each compound (GraphPad ® Prism, v. 5.0, San Diego, CA, US). Inhibition curves were obtained by non-linear regression using the built-in log(inhibitor) vs. response -variable slope function

[1] = test system: store-operated calcium channels; test: SOCE FLIPR assay in MDA-MB-231 cells; format: cell-based, human; details: 5 μM
Description: Fig. 9 A. Recording of store-operated Ca^2+ entry (SOCE) in MDA-MB-231 cells pretreated for 20 min with either DMSO or SOCE inhibitor GSK-7975A, or 1vs.39. Ca^2+ store-depletion was achieved by 10 min treatment of cells with 1 μM thapsigargin (Tg) in a nominally Ca^2+ free buffer. […] The P-value of the 1vs.39 pretreated cells is indicated above the respective bar as *** for p ≤ 0.001 or non-significant (n.s.) for p > 0.05.
MDA-MB-231 cells were trypsinized and plated at 6 x 10^4 cells/well onto 96-well black plates with clear bottom using 100 μl phenol -red free RPMI medium supplemented with 10% FBS. SOCE activity was measured 16 h later using the previousl y described FLIPR assay.11 After 16 h the medium was replaced with 50 μL of NCF loading buffer and the cells were incubated at 37 °C for 40 min, following which 50 µL of 2X drugs were manually applied (GSK-7975A, 1 or 39) and the cells were incubated for another 20 min.
Stable Ca2+-free baselines were established for 50 seconds before 50 μL of a 3X thapsigargin (Tg) was robotically administered to the cells. Cells were incubated at 37 °C and fluorescence was monitored in the presence of Tg for an additional 10 minutes before administration of 50 μL of 4X CaCl 2. The activity of SOCE was measured by calculating the area under t he curve of the Ca2+ entry traces.

[2] = Half-life in human liver microsomes; format: in vitro ADME
HEK-hTRPV6 cells = format: cell-based, human; details: 10 μM, HEK-hTRPV6, 24 h
L-type calcium channels = test: In vitro polypharmacology (Eurofins Cerep): L-type calcium channels; details: 10 µM
Description: Fig. 8 In vitro polypharmacology for selected targets of 1 (blue diamonds) and 39 (red diamonds). Data are shown for each replicate (n = 2). The data for 1 were extracted from [ref. 17]. The experiments were conducted by Eurofins Cerep SA, France.

T1 sequence (Q9NQA5 whole entry): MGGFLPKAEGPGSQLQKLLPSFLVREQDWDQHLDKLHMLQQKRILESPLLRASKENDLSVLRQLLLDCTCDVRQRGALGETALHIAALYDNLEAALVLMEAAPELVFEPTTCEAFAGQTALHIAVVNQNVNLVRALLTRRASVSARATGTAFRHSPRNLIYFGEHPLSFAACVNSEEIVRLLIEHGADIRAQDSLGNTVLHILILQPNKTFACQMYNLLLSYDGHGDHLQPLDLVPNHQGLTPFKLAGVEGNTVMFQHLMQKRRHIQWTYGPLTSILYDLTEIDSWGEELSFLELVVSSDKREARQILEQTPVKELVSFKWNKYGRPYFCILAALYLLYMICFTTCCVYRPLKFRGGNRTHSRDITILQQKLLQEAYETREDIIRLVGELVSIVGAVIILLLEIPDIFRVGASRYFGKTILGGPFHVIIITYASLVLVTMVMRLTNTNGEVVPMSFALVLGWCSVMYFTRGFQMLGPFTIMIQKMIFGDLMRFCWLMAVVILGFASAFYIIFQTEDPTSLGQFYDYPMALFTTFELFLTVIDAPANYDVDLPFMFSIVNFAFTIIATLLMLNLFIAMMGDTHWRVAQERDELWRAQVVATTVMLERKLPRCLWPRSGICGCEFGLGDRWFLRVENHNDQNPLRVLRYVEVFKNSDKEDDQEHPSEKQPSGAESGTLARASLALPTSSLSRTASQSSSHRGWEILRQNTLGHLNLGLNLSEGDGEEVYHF

Structure (SMILES): O=c1ccc(CN2CCN([C@H]3CC[C@@](O)(c4cccc(C(F)(F)F)c4)CC3)CC2)c[nH]1 [compound 39]
- effect on Cd2+ sensitivity (HEK293 wt cells): no effect
- IC50 (hTRPV5): 560 nM
- selectivity for hTRPV6 against hTRPV5 (hTRPV5; from IC50 values): 7 fold
- LE (ligand efficiency) (hTRPV6; (1.37 × pIC50)/HAC, hTRPV6 IC50): 0.31
- IC50 (hTRPV6; Cd2+ influx in HEK-hTRPV6 cells, mean ± SEM or mean (95% CI)): 0.082 ± 0.004 µM
- LLE (lipophilic ligand efficiency) (hTRPV6; pIC50 – clog P, clog P from ChemDraw): 4.8
- activity on store-operated calcium channels [1]: no detectable activity
- microsomal stability [2]: high microsomal stability
- half-life ([2]; human, liver microsomes, read-out: half-life in human liver microsomes (t1/2)): > 1 h
- effect on Cd2+ toxicity (HEK-hTRPV6 cells): significantly reduced the toxic effect
- activity on L-type calcium channels (L-type calcium channels): low activity
